5 compounds from patent publication US4737494A, “1,3-dithiole derivatives and pharmaceutical compositions” (priority 1984, dated 1988) can be followed below.

A word on the LD50: it is the dose at which mortality reaches 50%. A low value points to a more toxic substance.

SMILES strings stand for the structures. A value given as a limit tells only on which side of the number the result lay.

Holding throughout (type): in vivo, mice (ddY, male)
Data set [1] in a line: Acute toxicity test (oral, mortality 1 week after administration). The conditions noted are these: mouse, in vivo, mice, in olive oil. The protocol:
(§1) A test compound was suspended in olive oil and administered orally to mice (ddY mice,.male., 23±2 g, n=5 or 6). The actute toxicity value (LD50) was determined from the mortality 1 week after the administration.

Data set [2] deals with mice. The description is as above. The protocol: as §1
For data set [3], the system named is acute liver injury induced by carbon tetrachloride. The data set is described as follows: Protective effect on acute liver injury induced by carbon tetrachloride (mice, oral): plasma GPT activity and BSP retention. The conditions noted are these: 6 h before CCl4 (0.05 ml/kg p.o.); for GPT activity: plasma; for Retained BSP: plasma 30 min after BSP 75 mg/kg i.v. The protocol:
1. Protective Effect on Acute Liver Injury Induced by Carbon Tetrachloride
A test compound was dissolved or suspended in olive oil and administered orally to mice (ddY mice, .male., 23±2 g, n=5). After 6 hours, carbon tetrachloride (0.05 ml/kg) was administered orally. 24 Hours after the administration of carbon tetrachloride, BSP (sodium sulfobromophthalein; 75 mg/kg) was administered intravenously. Thirty minutes later, the cardiac blood was collected, and GPT (glutamic-pyruvic transaminase) activity and the retention rate of BSP in the plasma were measured.

Take `CCOC(=O)C[N+](C)=c1sccs1.[Cl-]` [Compound No. 2, N-(1,3-dithiol-2-ylidene)-N-methyl-N-ethoxycarbonylmethylammonium chloride]: the LD50 at 168 h in data set [1] is no less than 1500 mg/kg. For the same compound, the “acute toxicity (in words)” value in data set [2] was “extremely low toxicity”. In data set [3] (1 mg/kg), the GPT activity worked out at 3190 ± 412 Karmen units and the “Retained BSP” value was determined as 57.4 ± 12.3 µg/mL. In data set [3] (5 mg/kg), the GPT activity is given as 192 ± 84 Karmen units and the “Retained BSP” value worked out at 17.1 ± 1.4 µg/mL.
Take `CN1CC[N+](=c2sccs2)CC1.[O-][Cl+3]([O-])([O-])[O-]` [Compound No. 31, 1-(1,3-dithiol-2-ylidene)-4-methylpiperazinium perchlorate]: the LD50 at 168 h in data set [1] is no less than 1500 mg/kg. In data set [2], the “acute toxicity (in words)” value is on record as “extremely low toxicity”. Also, the GPT activity in data set [3] (1 mg/kg) stood at 523 ± 111 Karmen units; in data set [3] (5 mg/kg), 148 ± 51 Karmen units. The “Retained BSP” value in data set [3] (1 mg/kg) stood at 20.3 ± 3.4 µg/mL; in data set [3] (5 mg/kg) it was 12.6 ± 0.6 µg/mL.
In data set [1], `CCOC(=O)C1CCC[N+]1=c1sccs1.[O-][Cl+3]([O-])([O-])[O-]` (stereo not drawn) [Compound No. 41, 1-(1,3-dithiol-2-ylidene)-2-ethoxycarbonyl pyrrolidinium perchlorate] yielded an LD50 at 168 h of no less than 1500 mg/kg. Besides, the “acute toxicity (in words)” value in data set [2] is “extremely low toxicity”. Besides, in data set [3] (1 mg/kg), the GPT activity is on record as 405 ± 73 Karmen units and the “Retained BSP” value was 26.5 ± 3.1 µg/mL. In data set [3] (5 mg/kg), the GPT activity worked out at 165 ± 21 Karmen units and the “Retained BSP” value was found to be 17.9 ± 2.0 µg/mL.
`CCOC(=O)C1CCC[N+](=c2sccs2)C1.[I-]` (stereo not drawn) [Compound No. 55, 1-(1,3-dithiol-2-ylidene)-3-ethoxycarbonylpiperidinium iodide] returned an LD50 at 168 h in data set [1] of no less than 1500 mg/kg. The “acute toxicity (in words)” value in data set [2] is on record as “extremely low toxicity”. The figures for the GPT activity in data set [3] (1 mg/kg) and in data set [3] (5 mg/kg) were 2981 ± 169 Karmen units and 361 ± 49 Karmen units, respectively. Also, the results for the “Retained BSP” value in data set [3] (1 mg/kg) and in data set [3] (5 mg/kg) were 83.9 ± 14.1 µg/mL and 18.3 ± 4.4 µg/mL, respectively.
In data set [1], `CCOC(=O)C1CC[N+](=c2sccs2)CC1.[O-][Cl+3]([O-])([O-])[O-]` (stereo not drawn) [Compound No. 56, 1-(1,3-dithiol-2-ylidene)-4-ethoxycarbonylpiperidinium perchlorate] gave an LD50 at 168 h of no less than 1500 mg/kg. The “acute toxicity (in words)” value in data set [2] is listed as “extremely low toxicity”. Also, in data set [3] (1 mg/kg), the GPT activity worked out at 2713 ± 147 Karmen units and the “Retained BSP” value is 76.6 ± 13.1 µg/mL. Moreover, in data set [3] (5 mg/kg), the GPT activity is recorded as 216 ± 32 Karmen units and the “Retained BSP” value was 21.0 ± 13.4 µg/mL.
